Results from the supplement of paper PMC10307832.

How the values were obtained:
Experiment in all cases: relative viability (nuclei count vs DMSO), 5 days (fraction); higher = more cells survive
[1] = test system: HCC-15
Method in brief: (§1)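 Lung cancer cell lines, seeded in 1536-well plates, were treated the following day by pin tool with a single drug or with five library-drug doses (not always all listed) in √10 steps on top of a fixed anchor-drug dose. Cells were fixed and nuclei stained in one step after 5 days, and nuclei were counted. Relative viability is the nuclei count for treated wells divided by that for vehicle wells, reported as medians of duplicate plates.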

[2] = test system: EBC-1
Method in brief: as §1

[3] = test system: NCI-H650
Method in brief: as §1

[4] = test system: SK-LU-1
Method in brief: as §1

[5] = test system: Calu-6
Method in brief: as §1

[6] = test system: NCI-H1299
Method in brief: as §1

[7] = test system: NCI-H1915
Method in brief: as §1

[8] = test system: A549
Method in brief: as §1

[9] = test system: NCI-H1703
Method in brief: as §1

[10] = test system: IA-LM
Method in brief: as §1

[11] = test system: NCI-H1975
Method in brief: as §1

[12] = test system: NCI-H1793
Method in brief: as §1

[13] = test system: HARA
Method in brief: as §1

COCC1(CO)C(=O)C2CCN1CC2 (stereo unspecified) [PRIMA-1MET] + CS(=O)(=O)N1CCN(Cc2cc3nc(-c4cccc5[nH]ncc45)nc(N4CCOCC4)c3s2)CC1 [Pictilisib] (partner 1 µM)
relative viability ([1]; first compound 0.2 µM): 0.511 | relative viability ([1]; first compound 0.6325 µM): 0.582 | relative viability ([1]; first compound 2 µM): 0.568 | relative viability ([1]; first compound 6.325 µM): 0.638 | relative viability ([1]; first compound 20 µM): 0.618 | relative viability ([2]; first compound 0.2 µM): 0.414 | relative viability ([2]; first compound 0.6325 µM): 0.381 | relative viability ([2]; first compound 2 µM): 0.402 | relative viability ([2]; first compound 6.325 µM): 0.434 | relative viability ([2]; first compound 20 µM): 0.12 | relative viability ([3]; first compound 0.2 µM): 1.14 | relative viability ([3]; first compound 2 µM): 0.867 | relative viability ([3]; first compound 6.325 µM): 1.06 | relative viability ([3]; first compound 20 µM): 0.111 | relative viability ([4]; first compound 0.2 µM): 0.592 | relative viability ([4]; first compound 0.6325 µM): 0.549 | relative viability ([4]; first compound 2 µM): 0.357 | relative viability ([4]; first compound 6.325 µM): 0.697 | relative viability ([4]; first compound 20 µM): 0.142 | relative viability ([5]; first compound 0.2 µM): 0.945 | relative viability ([5]; first compound 0.6325 µM): 0.873 | relative viability ([5]; first compound 2 µM): 1.07 | relative viability ([5]; first compound 6.325 µM): 0.917 | relative viability ([5]; first compound 20 µM): 0.563 | relative viability ([6]; first compound 0.2 µM): 0.956 | relative viability ([6]; first compound 0.6325 µM): 0.782 | relative viability ([6]; first compound 2 µM): 0.345 | relative viability ([6]; first compound 6.325 µM): 0.808 | relative viability ([6]; first compound 20 µM): 0.0251 | relative viability ([7]; first compound 0.2 µM): 0.712 | relative viability ([7]; first compound 0.6325 µM): 0.785 | relative viability ([7]; first compound 2 µM): 0.625 | relative viability ([7]; first compound 6.325 µM): 0.705 | relative viability ([7]; first compound 20 µM): 0.932 | relative viability ([8]; first compound 0.2 µM): 0.581 | relative viability ([8]; first compound 0.6325 µM): 0.403 | relative viability ([8]; first compound 2 µM): 0.497 | relative viability ([8]; first compound 6.325 µM): 0.543 | relative viability ([8]; first compound 20 µM): 0.421 | relative viability ([9]; first compound 0.2 µM): 0.275 | relative viability ([9]; first compound 2 µM): 0.255 | relative viability ([9]; first compound 6.325 µM): 0.293 | relative viability ([9]; first compound 20 µM): 0.0333 | relative viability ([10]; first compound 0.2 µM): 0.476 | relative viability ([10]; first compound 0.6325 µM): 0.253 | relative viability ([10]; first compound 2 µM): 0.355 | relative viability ([10]; first compound 6.325 µM): 0.404 | relative viability ([10]; first compound 20 µM): 0.326 | relative viability ([11]; first compound 0.2 µM): 0.294 | relative viability ([11]; first compound 0.6325 µM): 0.291 | relative viability ([11]; first compound 2 µM): 0.27 | relative viability ([11]; first compound 6.325 µM): 0.311 | relative viability ([11]; first compound 20 µM): 0.248 | relative viability ([12]; first compound 0.2 µM): 0.372 | relative viability ([12]; first compound 0.6325 µM): 0.251 | relative viability ([12]; first compound 6.325 µM): 0.343 | relative viability ([12]; first compound 20 µM): 0.325 | relative viability ([13]; first compound 0.2 µM): 0.374 | relative viability ([13]; first compound 0.6325 µM): 0.417 | relative viability ([13]; first compound 6.325 µM): 0.446 | relative viability ([13]; first compound 20 µM): 0.403
